In patent US11054413B2, “Materials and methods for assaying living cells” (UNIVERSITY OF MARYLAND, COLLEGE PARK, priority 2014, dated 2021):
“Also recorded” adds a separate entry of the source.

How the values were obtained:
Patient-derived cells = experiment: McTN and stem cell responses of patient-derived cells to drugs (Table 2, predicted); format: cell-based, human; conditions: 30 minutes at the concentration given
Procedure: Patient-derived cells are treated with either vehicle (0.1% DMSO) or each of the drugs in Table 2 at the indicated concentration for 30 minutes and then analyzed for McTN incidence.

epithelial cells = conditions: Liu et al. 2012; Suprynowicz et al. 2012; cited from earlier work
SkBr3 cells [1] = experiment: McTN scoring in detached SkBr3 cells, confocal microscopy for tubulin (FIG. 4); format: cell-based; conditions: nonmetastatic SkBr3 cells
Source text: FIG. 4. Targeting cell division can increase McTNs. […] (Bars=mean±S.D from 3 expts. with McTNs scored blindly).

SkBr3 cells [2] = conditions: Balzer et al. 2010, see FIG. 4; cited from earlier work
MCF-7 cells = experiment: Tethering washing, cell retention; format: cell-based, human
Procedure: (§1) MDA-MB-436 and MCF-7 cells were seeded on PEM coated micro-slides with 4 bilayers and addition of DOPC or DOTAP (50,000 cells/channel). Cells were incubated for 1 h to allow for tethering. To quantify initial cell number, three images per channel were taken for each condition at time 0. After 1 h, existing media was gently removed from the bottom port of each channel and fresh media was added to the top port. Following a wash, three images were taken per channel for each condition using an Olympus CKX41 microscope at 4× magnification. This process was repeated for each wash. The area of the image occupied with cells (as a percent) was quantified using CellProfiler and the average from three images was calculated. The average percentage for each condition was then normalized to the area occupied at time 0.

MDA-MB-436 cells [3] = experiment: Tethering washing, cell retention; format: cell-based, human
Procedure: as §1

MDA-436 cells = experiment: Automated McTN analysis (FIG. 24); format: cell-based, human; conditions: at least 10 random cells
Source text: FIG. 24. Automated McTN analysis. […] A gradient vector flow snake algorithm was used to define the cell edges and a local curvature maxima effectively identified McTN ends (yellow diamonds). […] This automated cell shape analysis will also enable calculations of average McTN length, curvature, etc. that will yield more multi-dimensional data for McTN studies.

tumor cells [4] = conditions: tumor cells treated with taxol; cited from earlier work
CTCs = conditions: neoadjuvant treatment in advance of surgery; cited from earlier work
[5] = system: MDA-436 breast tumor cells; experiment: Quantitative image analysis of time-dependent McTN metrics and tip tracking (FIG. 36-37); format: cell-based, human
Source text: FIG. 36. Quantitative image analysis of time-dependent McTN metrics. A) MDA-436 breast tumor cells that were tethered with a PEM+DOTAP surface coating were imaged for McTNs with confocal microscopy (5 z-slices of 1 μm, max intensity projection shown). A custom MATLAB algorithm was applied to the image data to find the cell periphery (Perimeter trace) and then locate local points of maximum perimeter curvature (McTN Tracker). B) Analyzing cells at 10 s timepoints allows the dynamic movement of McTNs under vehicle-treated conditions to be appreciated (blue lines).
FIG. 37. Tracking individual McTN tip motion. Applying a particle-tracking algorithm to the McTN tips identified in FIG. 36 allows the movement of individual McTN tips (color-coded) to be followed over time.
Using breast cancer cell lines, we developed a custom MATLAB algorithm to identify McTN ends (points of local surface curvature maxima on a perimeter trace). Combined with automated identification of the cell body (erosion mask), both the number and lengths of individual McTNs can be defined. Now that we have succeeded in tethering tumor cells to PEM-DOTAP surfaces, it dramatically improves our ability to collect time-lapse confocal imaging without the blurring that occurs with even minor cell drift. […] By comparison, the variance of all three measures is reduced in Taxol-treated cells, reflecting the effect of stabilizing microtubules. Individual McTN tips can also be followed with MATLAB particle tracking to quantitate McTN dynamics (FIG. 37).

MDA-MB-436 cells [6] = experiment: Real-time McTN imaging of PEM-DOTAP tethered cells with drug treatment (FIG. 29B); format: cell-based, human; conditions: for McTN formation: PEM-DOTAP tether; for McTN dynamics over time: compared to vehicle control, time-lapse
Procedure: FIG. 29. Lipid tethering allows for real-time microtentacle imaging in response to drug treatment and minimizes effects of drift. (A) Microtentacle (arrows) imaging of MDA-MB-436 cells seeded on micro-slides with PEM-no tether (i-iii) and PEM-DOTAP tether (iv-vi). Representative […] slice (i and iv), maximum z-projection of 5 slices at one time point (ii and v), and maximum t-projection after 20 frames (iii and vi) are shown at 60× magnification. (B) Microtentacle (arrow) imaging of MDA-MB-436 cells seeded on micro-slides with PEM-DOTAP tether after treatment with 5 uM colchicine for 15 minutes and 1 μg/ml Taxol for 120 minutes. Maximum intensity z-projections of five […] slices at one time point are shown at 60× magnification. Scale bar represents […]
MDA-MB-436 cells were trypsinized, spun down, and resuspended in phenol red-free and serum-free DMEM. Cells were seeded on PEM coated micro-slides with 4 bilayers and PEM coated micro-slides with 4 bilayers and the addition of DOTAP (50,000 cells/channel). Cells were incubated for 1 h to allow for tethering. After 1 h, one wash was done where the existing media was gently removed from the bottom port of each channel and fresh media was added to top port. This wash was to ensure only tethered cells were analyzed. After this wash, CellMask orange cell membrane dye was added to each channel to a final concentration of 1:10,000. McTN imaging was done on an Olympus FV100 confocal laser scanning microscope at 60× magnification. Five 1 uM slices and 20 frames at a 10 sec frame rate were taken for at least five image sets for each condition. Colchicine was added to each channel at a final concentration of 5 uM and cells were imaged after 15 minutes. Taxol was added to each channel at final concentration of 1 μg/ml and imaged after 120 minutes. Cells were again imaged with five […] slices and 20 frames at a 10 second frame rate.

[7] = system: stem cell characteristics; conditions: Gupta et al. 2009; cited from earlier work
tumor cells [8] = experiment: Retention of tethered cells after formaldehyde crosslinking of DOTAP to PEM (FIG. 38B); format: cell-based; conditions: DOTAP crosslinked to PEM with formaldehyde vs charge interaction, multiple washes
Source text: FIG. 38. PEM coating for McTN studies.
We assembled PEMs from alternating layers of polymethacrylic acid (PMA) and polyacrylamide (PAAm) to coat microfluidic channels with very thin (100-1000 Angstroms) multilayers that retain high optical clarity. […] This crosslinking approach enables us to conduct improved imaging, time-dependent drug treatments without causing cell drift, but also illustrates that photo-crosslinking could be used to develop patterned arrays to facilitate tumor cell mechanical measurements and cell fate studies.

[9] = terminal lipid on 4 PMA/PAAm bilayers, successive washes
[10] = Taxol 1 μg/ml, PEM+DOTAP tethered
[11] = Taxol, McTN tip particle tracking
[12] = first wash, 4 PMA/PAAm bilayers, 1 h tethering

Question: Which “Predicted stemness & McTN effect” value (Patient-derived cells) does the source give for C/C(=C\c1csc(C)n1)[C@@H]1C[C@@H]2O[C@]2(C)CCC[C@H](C)[C@H](O)[C@@H](C)C(=O)C(C)(C)[C@@H](O)CC(=O)N1 [Ixabepilone] here?
Answer: Increase

Question: For CN(C)S(=O)(=O)c1ccc2c(c1)/C(=C/c1cc3c([nH]1)CCCC3)C(=O)N2 [SU6656], which “Predicted stemness & McTN effect” value (Patient-derived cells) is on record?
Answer: Increase

Question: Which “Predicted stemness & McTN effect” value (Patient-derived cells) does the source give for CC(=O)O[C@@]12CO[C@@H]1C[C@H](O)[C@@]1(C)C(=O)[C@H](O)C3=C(C)[C@@H](OC(=O)[C@H](O)[C@@H](NC(=O)OC(C)(C)C)c4ccccc4)C[C@@](O)([C@@H](OC(=O)c4ccccc4)[C@H]21)C3(C)C [Docetaxel] here?
Answer: Increase

Question: With O=S(=O)(c1cccc2cnccc12)N1CCCNCC1 [Fasudil] as the compound, how does the “Predicted stemness & McTN effect” value (Patient-derived cells) read?
Answer: Increase

Question: Which results are given for C[C@@H](N)[C@H]1CC[C@H](C(=O)Nc2ccncc2)CC1 [Y-27632]?
Answer: stem cell conversion (epithelial cells): conversion is occurring; Predicted stemness & McTN effect (Patient-derived cells): Increase

Question: With CC[C@]1(O)C[C@@H]2CN(CCc3c([nH]c4ccccc34)[C@@](C(=O)OC)(c3cc4c(cc3OC)N(C)[C@H]3[C@@](O)(C(=O)OC)[C@H](OC(C)=O)[C@]5(CC)C=CCN6CC[C@]43[C@@H]65)C2)C1 [Vinblastine] as the compound, how does the “Predicted stemness & McTN effect” value (Patient-derived cells) read?
Answer: Decrease

Question: With C/C1=C\[C@H](C)C[C@H](C)OC(=O)C[C@H](c2ccc(O)cc2)NC(=O)[C@@H](Cc2c(Br)[nH]c3ccccc23)N(C)C(=O)[C@H](C)NC(=O)[C@@H](C)C1 [Jasplakinolide] as the compound, how does the “levels of McTNs” value (SkBr3 cells [1]; Jas 500 nM) read?
Answer: increases levels of McTNs dramatically

Question: And the McTNs (SkBr3 cells [2])?
Answer: strongly promote McTNs

Question: What about the “Predicted stemness & McTN effect” value (Patient-derived cells) of the same compound?
Answer: Decrease

Question: With CCCCCCCC/C=C\CCCCCCCC(=O)OC[C@H](COP(=O)([O-])OCC[N+](C)(C)C)OC(=O)CCCCCCC/C=C\CCCCCCCC [DOPC, 1,2-dioleoyl-sn-glycero-3-phosphocholine] as the compound, how does the “tethering of tumor cells” value (MCF-7 cells; [9]) read?
Answer: unable to effectively tether either type of tumor cells

Question: And the “tethering of tumor cells” value (MDA-MB-436 cells [3]; [9])?
Answer: unable to effectively tether either type of tumor cells

Question: With CC(=O)O[C@H]1C(=O)[C@@]2(C)[C@H]([C@H](OC(=O)c3ccccc3)[C@]3(O)C[C@H](OC(=O)[C@H](O)[C@@H](NC(=O)c4ccccc4)c4ccccc4)C(C)=C1C3(C)C)[C@]1(OC(C)=O)CO[C@@H]1C[C@@H]2O [Paclitaxel] as the compound, how does the “levels of McTNs” value (SkBr3 cells [1]; Paclitaxel-Taxol 1.2 μM) read?
Answer: increases levels of McTNs dramatically

Question: What about the “average number of McTNs per cell” value (MDA-436 cells; paclitaxel 1 μM) of the same compound?
Answer: increases McTNs, but this does not reach significance

Question: What about the “lung trapping of tumor cells” value (tumor cells [4]) of the same compound?
Answer: greater lung trapping of tumor cells

Question: What about the McTNs (SkBr3 cells [2]) of the same compound?
Answer: strongly promote McTNs

Question: What about the “Predicted stemness & McTN effect” value (Patient-derived cells) of the same compound?
Answer: Increase

Question: And the “increase of CTCs” value (CTCs)?
Answer: more than 1000 fold

Question: And the “range of McTN measurements and variance of all metrics” value ([5]; Taxol 1 μg/ml, 10 s timepoints)?
Answer: reduced; also recorded: strongly reduces the range of McTN measurements and the variance of all metrics

Question: And the McTN length [5, 10]?
Answer: increases

Question: And the “number of McTNs per cell >4 μm from cell periphery (McTN number)” value [5, 10]?
Answer: increases the number of McTNs per cell

Question: And the “McTN persistence (area over which a McTN moves)” value [5, 11]?
Answer: make McTNs more persistent

Question: What about the “average McTN speed” value [5, 11] of the same compound?
Answer: reduce average McTN speed

Question: What about the McTN formation (MDA-MB-436 cells [6]; Taxol 1 μg/ml, 120 minutes) of the same compound?
Answer: enhances McTNs; also recorded: enhanced McTN formation

Question: What about the “McTN dynamics over time” value (MDA-MB-436 cells [6]; taxol) of the same compound?
Answer: hyperstabilizes McTNs dramatically decreasing their dynamics

Question: What about the “stem cell characteristics and tumor metastasis” value [7] of the same compound?
Answer: increases stem cell characteristics and even tumor metastasis

Question: With COc1cc2c(c(OC)c1OC)-c1ccc(OC)c(=O)cc1[C@@H](NC(C)=O)CC2 [Colchicine] as the compound, how does the “average number of McTNs per cell” value (MDA-436 cells; colchicine 50 μM) read?
Answer: significantly reduces the average number of McTNs per cell

Question: What about the “Predicted stemness & McTN effect” value (Patient-derived cells) of the same compound?
Answer: Decrease

Question: And the McTNs ([5]; Colchicine 50 μM, PEM+DOTAP tethered)?
Answer: completely inhibits McTN generation; also recorded: completely eliminates McTNs

Question: And the McTN formation (MDA-MB-436 cells [6]; colchicine 5 uM, 15 minutes)?
Answer: decreases microtentacles; also recorded: inhibited McTN formation

Question: And the “McTN dynamics over time” value (MDA-MB-436 cells [6]; colchicine)?
Answer: shrinks McTNs and enhances cell blebbing

Question: For CCCCCCCC/C=C\CCCCCCCC(=O)OCC(C[N+](C)(C)C)OC(=O)CCCCCCC/C=C\CCCCCCCC (stereo not shown) [DOTAP, 1,2-dioleoyl-3-trimethylammonium-propane], which cell retention (MCF-7 cells; after five washes) is on record?
Answer: 15%

Question: And the cell retention (MCF-7 cells; [12])?
Answer: 80%

Question: What about the cell retention (MDA-MB-436 cells [3]; [12]) of the same compound?
Answer: 38%

Question: And the “retention of tethered tumor cells” value (tumor cells [8])?
Answer: dramatically improves retention of tethered tumor cells during multiple washes; also recorded: significantly improves initial tethering efficiency and resistance to washing

Question: With O=S(=O)(c1cccc2c(I)cccc12)N1CCCNCC1 [ML-7] as the compound, how does the “Predicted stemness & McTN effect” value (Patient-derived cells) read?
Answer: Decrease

Question: For C=C1C(=O)O[C@@H]2/C=C(\C)CC/C=C(\C)CC[C@@H]12 [Costunolide], which “Predicted stemness & McTN effect” value (Patient-derived cells) is on record?
Answer: Decrease
